Results from the supplement of paper PMC11919725.

Assays:
Jurkat [1] = experiment: metabolic activity relative to DMSO, 18 h (ratio); higher = more viable
Outline: (§1)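 Metabolic activity values are normalised to the average of vehicle control wells. They come from Jurkat or primary CD4+/CD8+ T cells (naive, or activated 48 h with CD3/CD28 Dynabeads) treated for 18 h at 37 °C, 5% CO2 with compound over 1 nM–10 µM in log10 steps. Then 100 µl of each suspension was mixed in 96-well plates with alamarBlue (10% v/v final), and fluorescence at 544 nm excitation and 584 nm emission was recorded on a FluoStar Omega 3.5 h later.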

Jurkat [2] = experiment: confluency relative to DMSO, 18 h (ratio); higher = more viable
Outline: (§2)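 Jurkat cells or primary CD4+/CD8+ T cells, either naive or activated for 48 h with CD3/CD28 Dynabeads, were exposed to compound from 1 nM to 10 µM in log10 steps for 18 h at 37 °C and 5% CO2. Afterwards, 100 µl of each suspension was moved into 96-well plates containing IncuCyte Cytotox Dye and alamarBlue. Phase-contrast images were taken at ×10, five per well, every hour for 3 h. Confluency was derived from these images with the IncuCyte Basic Analyzer, and values are expressed relative to the mean of the control wells.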

Jurkat [3] = experiment: cytotoxicity relative to DMSO, 18 h (ratio); higher = less cell death (drugs called cytotoxic fall below 1)
Outline: (§3)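 Fluorescence was imaged at ×10, five images per well, every hour for 3 h, in 96-well plates holding 100 µl of treated cell suspension and IncuCyte Cytotox Dye at 250 nM final. Before plating, Jurkat cells or primary CD4+/CD8+ T cells (naive, or activated 48 h with CD3/CD28 Dynabeads) had been treated for 18 h with compound across 1 nM–10 µM in log10 steps at 37 °C, 5% CO2. Cytotoxicity values were based on these IncuCyte signals after confluency correction and normalisation to the mean of control wells.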

[4] = tested on: Primary T cells CD4+ naive; experiment: metabolic activity relative to DMSO, 18 h (ratio); higher = more viable
Outline: as §1

[5] = tested on: Primary T cells CD4+ naive; experiment: confluency relative to DMSO, 18 h (ratio); higher = more viable
Outline: as §2

[6] = tested on: Primary T cells CD4+ naive; experiment: cytotoxicity relative to DMSO, 18 h (ratio); higher = less cell death (drugs called cytotoxic fall below 1)
Outline: as §3

[7] = tested on: Primary T cells CD4+ activated; experiment: metabolic activity relative to DMSO, 18 h (ratio); higher = more viable
Outline: as §1

Compound | metabolic activity (Jurkat [1]; 1 nM) | metabolic activity (Jurkat [1]; 10 nM) | metabolic activity (Jurkat [1]; 100 nM) | metabolic activity (Jurkat [1]; 1000 nM) | metabolic activity (Jurkat [1]; 10000 nM) | confluency (Jurkat [2]; 1 nM) | confluency (Jurkat [2]; 10 nM) | confluency (Jurkat [2]; 100 nM) | confluency (Jurkat [2]; 1000 nM) | confluency (Jurkat [2]; 10000 nM) | cytotoxicity (Jurkat [3]; 1 nM) | cytotoxicity (Jurkat [3]; 10 nM) | cytotoxicity (Jurkat [3]; 100 nM) | cytotoxicity (Jurkat [3]; 1000 nM) | cytotoxicity (Jurkat [3]; 10000 nM) | metabolic activity ([4]; 1 nM) | metabolic activity ([4]; 10 nM) | metabolic activity ([4]; 100 nM) | metabolic activity ([4]; 1000 nM) | metabolic activity ([4]; 10000 nM) | confluency ([5]; 1 nM) | confluency ([5]; 10 nM) | confluency ([5]; 100 nM) | confluency ([5]; 1000 nM) | confluency ([5]; 10000 nM) | cytotoxicity ([6]; 1 nM) | cytotoxicity ([6]; 10 nM) | cytotoxicity ([6]; 100 nM) | cytotoxicity ([6]; 1000 nM) | cytotoxicity ([6]; 10000 nM) | metabolic activity ([7]; 1 nM) | metabolic activity ([7]; 10 nM) | metabolic activity ([7]; 100 nM) | metabolic activity ([7]; 1000 nM) | metabolic activity ([7]; 10000 nM)
NC1CC1c1ccccc1 (stereo not given) [Tranylcypromine] | 1.02 | 0.916 | 1.14 | 1.08 | 0.962 | 0.972 | 0.963 | 0.998 | 1.02 | 1 | 0.98 | 0.941 | 1.15 | 1.08 | 0.956 | – | – | – | – | – | – | – | – | – | – | – | – | – | – | – | – | – | – | – | –
CC(C=CC(=O)NO)=CC(C)C(=O)c1ccc(N(C)C)cc1 (stereo not given) [Trichostatin-A] | 1.21 | 1.17 | 1.17 | 0.97 | 0.904 | 0.999 | 1.03 | 1.03 | 0.99 | 0.96 | 1.27 | 1.25 | 1.22 | 1.06 | 0.98 | – | – | – | – | – | – | – | – | – | – | – | – | – | – | – | – | – | – | – | –
CN1CCc2c(c3ccccc3n2Cc2ccc(C(=O)NO)cc2)C1 [Tubastatin A] | 1.23 | 1.23 | 1.24 | 1.15 | 1.19 | 0.97 | 0.971 | 0.987 | 0.932 | 0.841 | 1.04 | 1.02 | 1.05 | 0.953 | 0.893 | – | – | – | – | – | – | – | – | – | – | – | – | – | – | – | – | – | – | – | –
Nc1cc(F)ccc1NC(=O)c1ccc(CNC(=O)C=Cc2cccnc2)cc1 [Tucidinostat] | 0.891 | 0.945 | 0.974 | 0.952 | 0.882 | 1 | 0.981 | 0.912 | 0.878 | 1.03 | 1.08 | 0.992 | 0.929 | 0.871 | 0.987 | 0.862 | 1.05 | 0.872 | 0.881 | 0.697 | 1.08 | 1.18 | 1.3 | 1.26 | 0.617 | 1.13 | 1.05 | 1.42 | 1.19 | 0.636 | – | – | – | – | –
CC(C)Nc1cc(-c2c[nH]c(C(=O)NC(CO)c3cccc(Cl)c3)c2)c(Cl)cn1 (stereo not given) [Ulixertinib] | 1.05 | 1.02 | 0.828 | 0.866 | 0.878 | 1.02 | 1.06 | 0.999 | 1.11 | 0.826 | 0.973 | 1.01 | 0.93 | 0.998 | 0.777 | – | – | – | – | – | – | – | – | – | – | – | – | – | – | – | – | – | – | – | –
Cc1ncsc1-c1ccc(CNC(=O)C2CC(O)CN2C(=O)C(NC(=O)C2(C#N)CC2)C(C)(C)C)cc1 (stereo not given) [VH298] | 1.04 | 1.08 | 1.13 | 1.14 | 0.896 | 1.01 | 0.995 | 0.998 | 0.962 | 0.901 | 1 | 1.05 | 1.12 | 1.13 | 0.942 | – | – | – | – | – | – | – | – | – | – | – | – | – | – | – | – | – | – | – | –
Cc1ncsc1-c1ccc(CNC(=O)C2CC(O)CN2C(=O)C(N)C(C)(C)C)cc1 (stereo not given) [VHL ligand 1] | 1.06 | 1.01 | 1.06 | 0.989 | 1.05 | 1.01 | 1.01 | 1.03 | 1.02 | 1.02 | 1.01 | 0.955 | 0.949 | 0.966 | 0.948 | – | – | – | – | – | – | – | – | – | – | – | – | – | – | – | – | – | – | – | –
CC1(c2nc3c(C(N)=O)cccc3[nH]2)CCCN1 (stereo not given) [Veliparib] | 0.894 | 0.816 | 0.851 | 0.948 | 0.8 | 1.07 | 1.04 | 1.02 | 1.03 | 0.966 | 1.03 | 0.975 | 0.969 | 1.08 | 0.9 | – | – | – | – | – | – | – | – | – | – | – | – | – | – | – | – | – | – | – | –
CCC1(O)CC2CN(CCc3c([nH]c4ccccc34)C(C(=O)OC)(c3cc4c(cc3OC)N(C=O)C3C(O)(C(=O)OC)C(OC(C)=O)C5(CC)C=CCN6CCC43C65)C2)C1 (stereo not given) [Vincristine] | 0.536 | 0.402 | 0.366 | 0.394 | 0.412 | 0.98 | 0.875 | 0.82 | 0.781 | 0.762 | 0.824 | 0.698 | 0.662 | 0.611 | 0.585 | – | – | – | – | – | – | – | – | – | – | – | – | – | – | – | – | – | – | – | –
O=C(CCCCCCC(=O)Nc1ccccc1)NO [Vorinostat] | 0.947 | 0.907 | 0.815 | 0.809 | 0.764 | 1.03 | 1 | 1.14 | 1.11 | 1.36 | – | – | – | – | – | 0.859 | 0.862 | 0.902 | 1.02 | 0.913 | – | – | – | – | – | – | – | – | – | – | 0.849 | 0.979 | 0.964 | 0.945 | 0.788
CCn1c(=O)c(-c2ccn[nH]2)cc2c(C)nc(N)nc21 [Voxtalisib] | 1.05 | 1.02 | 0.993 | 0.924 | 1 | 1 | 1.01 | 1.02 | 1.02 | 1.04 | 0.985 | 0.977 | 0.966 | 0.943 | 1.02 | – | – | – | – | – | – | – | – | – | – | – | – | – | – | – | – | – | – | – | –
CN1CC=CCCOc2cccc(c2)-c2ccnc(n2)Nc2cccc(c2)C1 [Zotiraciclib] | 1.03 | 0.912 | 0.094 | 0.085 | 0.05 | 0.992 | 0.992 | 0.923 | 0.908 | 0.882 | 0.95 | 0.924 | 0.468 | 0.473 | 0.436 | – | – | – | – | – | – | – | – | – | – | – | – | – | – | – | – | – | – | – | –
